According to publication PMC4013070, “The Imaging of Insulinomas Using a Radionuclide-Labelled Molecule of the GLP-1 Analogue Liraglutide: A New Application of Liraglutide” (PLoS ONE, 2014):

Experiments:
[1] = test system: INS-1 insulinoma xenograft; test: In vivo distribution of radioactivity across organs in nude mouse insulinoma model; set-up: species or system BALB/c nude mice; settings: 90 min after injection of approx. 100 µCi, from %ID/g, mean ± SD, N = 3
Protocol: (§1) A total of 24 nude mice were each subcutaneously injected in the armpit of the right upper limb with 100 µl of a suspension of INS-1 cells (containing approximately 10^7 cells per 100 µl). The nude mice were reared under conventional sterile conditions and given 5% dextrose injections as drinking water (Shanghai Changzheng Fumin Jinshan Pharmaceutical, Shanghai, China). Their blood glucose levels were monitored every 2–3 days with a glucometer (Accu-Chek Integra integrated blood glucose meter, Roche, Berlin, Germany), and all measured blood glucose levels were at least 3 mmol/L.
Six nude mice each received a 100 µl injection containing approximately 100 µCi of ^125I-liraglutide. At 90 min and 360 min after this injection, 3 mice were sacrificed by cervical dislocation. First, blood was collected from the heart; next, isolated various organs and tissues, including the heart, lungs, liver, stomach, kidneys, spleen, small intestine, and pancreas, as well as muscle tissue and the tumour; the isolated samples were then placed into tubes that were impervious to γ radiation and weighed. For each tube, the radioactivity in counts per minute was then measured by a γ counter. The results were presented in terms of %ID/g (the percentage of the total injected dose of radioactivity per gram of tissue). Histograms of %ID/g for various organs at the 90 min and 360 min time points were plotted.

[2] = test system: INS-1 insulinoma xenograft; test: In vivo blocking experiment with unlabelled liraglutide (biodistribution); set-up: species or system BALB/c nude mice; settings: 100 µg unlabelled liraglutide i.v. 30 min before approx. 100 µCi tracer, 90 min, p<0.05, N = 3
Protocol: as §1
In this experiment, 100 µl of liraglutide solution containing 100 µg of unlabelled liraglutide, was injected into the tail veins of each of 3 nude mice with insulinoma. Half an hour later, 100 µl of ^125I-liraglutide solution containing approximately 100 µCi of ^125I-liraglutide was injected into the tail vein of each mouse. To create an unblocked experimental group that corresponded with this blocked group, 100 µl of ^125I-liraglutide solution containing approximately 100 µCi of ^125I-liraglutide was injected into the tail veins of each of 3 more nude mice with insulinoma. These six nude mice with insulinoma were sacrificed by cervical dislocation at 90 min after the ^125I-liraglutide injection. First, blood was collected from the heart and various organs and tissues were isolated; the isolated samples were then placed into tubes that were impervious to γ radiation and weighed. For each tube, the radioactivity in counts per minute was then measured by a γ counter. The results were presented in terms of %ID/g. A histogram of %ID/g for various organs at the 90 min time point in the blocked and unblocked groups was plotted.

[3] = In vitro stability in fetal bovine serum; assay type: in vitro ADME; settings: 37°C, 0 h
[4] = cited from earlier work
GLP-1 receptors = biological target: GLP-1 receptors; set-up: method as in PMID 23652208; settings: Rin-m5f insulinoma cells, earlier exendin-4 imaging study of the authors; cited from earlier work
[5] = in vivo; cited from earlier work
From the text: This approach can be utilised for qualitative diagnoses, accurate staging, and evaluation of treatment efficacy. However, the detection rate of SSTR imaging for insulinoma is not high. […] This limited utility is because in tumours, among the five subtypes of SSTRs (SSTR1-SSTR5), radionucli ...

CCCCCCCCCCCCCCCC(=O)N[C@@H](CCC(=O)NCCCC[C@H](NC(=O)[C@H](C)NC(=O)[C@H](C)NC(=O)[C@H](CCC(N)=O)NC(=O)CNC(=O)[C@H](CCC(=O)O)NC(=O)[C@H](CC(C)C)NC(=O)[C@H](Cc1ccc(O)c(I)c1)NC(=O)[C@H](CO)NC(=O)[C@H](CO)NC(=O)[C@@H](NC(=O)[C@H](CC(=O)O)NC(=O)[C@H](CO)NC(=O)[C@@H](NC(=O)[C@H](Cc1ccccc1)NC(=O)[C@@H](NC(=O)CNC(=O)[C@H](CCC(=O)O)NC(=O)[C@H](C)NC(=O)[C@@H](N)Cc1c[nH]cn1)[C@@H](C)O)[C@@H](C)O)C(C)C)C(=O)N[C@@H](CCC(=O)O)C(=O)N[C@@H](Cc1ccccc1)C(=O)N[C@H](C(=O)N[C@@H](C)C(=O)N[C@@H](Cc1c[nH]c2ccccc12)C(=O)N[C@@H](CC(C)C)C(=O)N[C@H](C(=O)N[C@@H](CCCNC(=N)N)C(=O)NCC(=O)N[C@@H](CCCNC(=N)N)C(=O)NCC(=O)O)C(C)C)[C@@H](C)CC)C(=O)O [125I-liraglutide]
T/NT ratio, tumour to muscle tissue [1]: 4.83±1.30 | T/NT ratio, tumour to pancreatic tissue [1]: 2.73±0.80 | radioactivity (%ID/g) of the lungs after blocking [2]: significantly decreased | radioactivity (%ID/g) of the pancreas after blocking [2]: significantly decreased | radioactivity (%ID/g) of the tumour after blocking [2]: significantly reduced | intact peptide in fetal bovine serum [3]: 92.9%

CCCCCCCCCCCCCCCC(=O)N[C@@H](CCC(=O)NCCCC[C@H](NC(=O)[C@H](C)NC(=O)[C@H](C)NC(=O)[C@H](CCC(N)=O)NC(=O)CNC(=O)[C@H](CCC(=O)O)NC(=O)[C@H](CC(C)C)NC(=O)[C@H](Cc1ccc(O)cc1)NC(=O)[C@H](CO)NC(=O)[C@H](CO)NC(=O)[C@@H](NC(=O)[C@H](CC(=O)O)NC(=O)[C@H](CO)NC(=O)[C@@H](NC(=O)[C@H](Cc1ccccc1)NC(=O)[C@@H](NC(=O)CNC(=O)[C@H](CCC(=O)O)NC(=O)[C@H](C)NC(=O)[C@@H](N)Cc1cnc[nH]1)[C@@H](C)O)[C@@H](C)O)C(C)C)C(=O)N[C@@H](CCC(=O)O)C(=O)N[C@@H](Cc1ccccc1)C(=O)N[C@H](C(=O)N[C@@H](C)C(=O)N[C@@H](Cc1c[nH]c2ccccc12)C(=O)N[C@@H](CC(C)C)C(=O)N[C@H](C(=O)N[C@@H](CCCNC(=N)N)C(=O)NCC(=O)N[C@@H](CCCNC(=N)N)C(=O)NCC(=O)O)C(C)C)[C@@H](C)CC)C(=O)O [liraglutide]
in vivo half-life [4]: up to 13 h

Exendin-4
IC50 (GLP-1 receptors): 0.35 to 2.81 nM | Kd (GLP-1 receptors): 56.6 nM

Glucagon-like peptide-1 [GLP-1]
serum half-life [5]: less than 2 min
